For data set [1], the target named is T1, human erythrocyte-derived acetylcholinesterase (Homo sapiens, UniProt P22303).
T1 construct: Human erythrocyte-drived acetylcholinesterase (Sigma) was dissolved in distilled water; purchased Sigma; host or cells: human erythrocytes (natural source)
Briefly: Measurement of acetylcholinesterase inhibitory activity (acetylthiocholine / Ellman method). Type of data set: biochemical. As to conditions: 50% inhibition concentration, repeated at least three times, read-out: AchE: IC50. The protocol:
a) Measurement of Acetylcholinesterase Inhibitory Activity
Acetylcholinesterase inhibitory activity of Example compounds was measured using human erythrocyte-derived acetylcholinesterase by an acetylthiocholine method (Ellman method).
Human erythrocyte-drived acetylcholinesterase (Sigma) was dissolved in distilled water to the concentration of 0.2 IU/mL to obtain an enzyme specimen. 20 μL of a drug solution, 30 μL of 80 mM Tris-HCL (pH 7.4), 50 μL of an enzyme specimen and 50 μL of 5 mM 5,5-dithio-bis (2-nitrobenzoic acid)(Sigma) were dispensed on a 96-well microplate, and this was shaken for 10 seconds. 50 μL of 4 mM acetylthiocholine iodide (Sigma) was added, this was shaken again and, immediately after, increase in absorbance at 414 nm was measured at 30 second intervals for 10 minutes. Enzyme activity was measured by the following equation: R=5.74×10^−7×ΔA (wherein R represents enzyme activity (mol), and ΔA represents increase in absorbance at 414 nm)
Regarding each compound, the experiment was repeated at least three times to obtain 50% inhibition concentration (IC50). According to the similar method to the above-mentioned, acetylcholinesterase inhibitory activity of distigmine which is a known acetylcholinesterase inhibitor was measured.
A general note: DTNB colorimetry detects thiols as they appear.

For data set [2], the target named is T2, human adrenaline α1A receptor (Homo sapiens, UniProt P35348).
T2 construct: expressed in transfected cells; membrane fraction
T2 sequence (P35348 1-466): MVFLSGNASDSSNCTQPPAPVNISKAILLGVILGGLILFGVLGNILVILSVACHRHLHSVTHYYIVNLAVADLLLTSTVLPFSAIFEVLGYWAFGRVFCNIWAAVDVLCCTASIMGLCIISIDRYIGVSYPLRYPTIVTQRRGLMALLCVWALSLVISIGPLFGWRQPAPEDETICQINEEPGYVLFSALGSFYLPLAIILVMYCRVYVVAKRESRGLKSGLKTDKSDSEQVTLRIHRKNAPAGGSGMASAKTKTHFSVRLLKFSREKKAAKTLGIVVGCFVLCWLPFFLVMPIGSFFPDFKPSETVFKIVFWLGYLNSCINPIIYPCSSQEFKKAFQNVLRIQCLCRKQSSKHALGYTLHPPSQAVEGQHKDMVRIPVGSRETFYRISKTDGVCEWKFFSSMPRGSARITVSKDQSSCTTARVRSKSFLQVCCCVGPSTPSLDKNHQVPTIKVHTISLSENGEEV
Briefly: Measurement of α1A receptor binding inhibitory activity ([3H]-Prazosin binding to CHO-K1 membrane fraction). To be noted: concentration reducing [3H]-Prazosin (2.5 nM) binding to the membrane fraction to 50%. The protocol: b) Measurement of α1A Receptor Binding Inhibitory Activity
The following gene manipulation method was carried out according to the method described in a textbook (Miniatis et al., Molecular Cloning, Cold Spring Harbor Laboratory, 1989) or the method described in protocol attached to a reagent.
(i) Preparation of Expression Plasmid for Human Adrenaline α1A Receptor
An adrenaline α1A receptor gene was cloned from a human liver cDNA by a PCR method. A PCR reaction was performed with Gene Amp PCR System 9700 (Applied Biosystems) using 200 ng of a human liver cDNA library (TAKARA SHUZO Co., Ltd.) as a template and using TaKaRa Pyrobest DNA Polymerase (TAKARA SHUZO CO., Ltd) and adding each 50 pmol of a primer set 5′-[…]-3′ [SEQ ID No.: 1] and 5′-[…]-3[SEQ ID No.: 2] prepared making reference to a nucleotide sequence of an adrenaline α1A receptor gene which was reported by Hirasawa A. et al. (Biochem. Biophys. Res. Commun., 195, 902–909(1993)) (reaction condition: 45 cycles of 15 seconds at 94° C., and 3 minutes 30 seconds at 68° C.).
The obtained PCR fragment was digested with restriction enzymes Eco RI (TAKARA SHUZO Co. Ltd.) and Sal I. (TAKARA SHUZO Co. Ltd.), and agarose gel electrophoresis was performed to recover DNA fragments. The DNA fragments were mixed with an animal cell expression plasmid pMSR αneo (Administration No. A99–0013) which had been digested with Eco RI and Sal I, ligated with DNA Ligation Kit Ver. 2 (TAKARA SHUZO Co. Ltd.), and a competent cell of Esherichia coli JM109 was transformed to obtain a plasmid pMSR αneoA dreα1A.
(ii) Introduction of Plasmid for Expression of Human Adrenaline α1A Receptor into CHO-K1 Cell and Preparation of Membrane Fraction
CHO-K1 cells which had been subcultured in a 150 cm^2 culturing flask (Corning Coaster) using Ham F12 medium (Invitrogen) containing 10% fetal bovine serum (TRACE SCIENTIFIC) was peeled with 0.5 g/L trypsin-0.2 g/L EDTA(Invitrogen), cells were washed with D-PBS(−) (Invitrogen), centrifuged (1000 rpm, 5 min.), and suspended in D-PBS(−). […]

Data set [3] deals with Hartley male guinea pigs loaded with phenylephrine. Briefly: Pressure Flow Study using guinea pigs loaded with phenylephrine. To be noted: i.v., tamsulosin 0.01 mg/kg, Example 20 0.1 mg/kg, urethane-anesthetized, phenylephrine 3 μg/animal/min. Type of data set: in vivo, guinea pig. Here is the method: Hartley male guinea pigs (Slc) weighing 300 to 350 g was anesthetized with urethane (1.2 g/kg, i.p.), and a median was incised to expose bladder. Two polyethylene tubes were inserted into bladder, and one of them was used for injecting a physiological saline and the other was used for measuring a bladder internal pressure. A cannulae was inserted into a left femoral vein, and phenylephrine was continuously administered intravenously at 3 μg/animal/min until the completion of experiment. A physiological saline was injected into bladder at a rate of 0.3 mL/min, and injection was stopped when urination was confirmed. The urinated urine weight was measured with an electron balance (HX-400, A & D) at real time. Analogue data of bladder internal pressure and urine weight were inputted into an AD transducer (MP-100, BIOPAC Systems), and digital signals were analyzed with exclusive analyzing software (AcqKnowledge 3.5.3, BIOPAC Systems). The sampling rate of data was 10 Hz, and data of urination amount and urine flow rate were subjected to a lowcut filter at 0.5 Hz in order to remove noises. The value of urine weight was differentiated to calculate urine flow rate (Q), and maximum urine flow rate (Qmax) at urination and bladder internal pressure (Pves (Qmax)) at maximum urine flow were calculated. The urination weight 1 g was converted into 1 mL to calculate the urination amount, and divided by bladder volume to obtain voiding efficiency (Voiding Efficiency). Example compound was dissolved in DMSO, and the solution was intravenously administered at 0.5 mL/kg. 10 minutes after administration of test compound, urinary reflection was recorded again, and change in urine flow rate (ΔQmax), and change in bladder internal pressure (ΔPves(Qmax)) and voiding efficiency were assessed. The change in urine flow rate (ΔQmax) and change in bladder internal pressure (ΔPves. (Qmax)) were an amount of change (Δ value) obtained by subtracting each value before administration of test compound from each value after administration, and voiding efficiency was assessed by a relative value (% of pre-value) of after administration of test compound relative to before administration. Tamsulosin which is a known α1 receptor antagonist was measured similarly. A significance diffenence was tested by a Dunnett test by comparing with each value of a vehicle (DMSO)-administered group.

Another data set deals with Hartley male guinea pigs. Briefly: Effect on blood pressure in anesthetized guinea pigs. In kind it is in vivo, guinea pig. Here is the method:
Hartley male guinea pigs (Slc) weighing 300 to 350 g was anesthetized with urethane (1.2 g/kg), and retained, a cervical region was incised to expose a left common carotid artery. A polyethylene tube filled with physiological saline containing heparin (10 U.I./ml) was inserted into an artery, and blood pressure was measured with a pressure transducer. A cannulae for administering test compound was inserted into a vein at an end of left hind leg, and a test compound dissolved in distilled water was administered therethrough at 0.5 mL/kg. The blood pressure was recorded at 20 Hz using an analogue data inputting apparatus (MP-100, BIOPAC Systems), and analyzed by analyzing software (AcqKnowledge 3.5.3, BIOPAC Systems). Example compound and tamsulosin were studied for a dose at which effects were recognized in the aforementioned test a (Pressure Flow Study), and an average blood pressure just before administration of test compound and an average blood pressure 15 minutes after administration were measured. Data were statistically treated by Paired t-test.

[4] abbreviates: 10 minutes after administration minus before.

The source of these data is patent publication US7132547B2, “Preventives/remedies for urinary disturbance” (priority 2001, dated 2006).

Each structure is given as a SMILES string. Where a name gives a salt, the structure may show the parent alone.

What is called melting point is the temperature of the solid-liquid transition. One may read the IC50 as the point on the concentration scale where inhibition reaches its midpoint.

T1 sequence (P22303 32-617 isoform P22303-2 limits assumed): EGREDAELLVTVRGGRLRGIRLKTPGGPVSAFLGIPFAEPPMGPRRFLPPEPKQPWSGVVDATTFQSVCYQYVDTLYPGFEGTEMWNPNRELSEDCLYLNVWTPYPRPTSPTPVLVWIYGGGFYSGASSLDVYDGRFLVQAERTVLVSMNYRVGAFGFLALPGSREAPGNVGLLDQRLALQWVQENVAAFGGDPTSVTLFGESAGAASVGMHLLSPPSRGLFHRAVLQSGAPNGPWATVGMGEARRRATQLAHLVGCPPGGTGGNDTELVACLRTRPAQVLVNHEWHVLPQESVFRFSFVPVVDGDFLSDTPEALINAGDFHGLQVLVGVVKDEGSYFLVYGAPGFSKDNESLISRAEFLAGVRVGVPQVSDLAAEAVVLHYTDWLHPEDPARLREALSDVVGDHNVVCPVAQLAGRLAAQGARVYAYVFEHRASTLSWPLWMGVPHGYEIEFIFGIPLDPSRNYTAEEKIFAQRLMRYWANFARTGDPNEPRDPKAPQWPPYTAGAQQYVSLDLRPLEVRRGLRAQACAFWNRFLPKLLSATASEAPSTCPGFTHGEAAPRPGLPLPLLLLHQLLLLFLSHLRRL

`Cl.O=C(CCCCNCCc1ccccc1)c1cc2c3c(c1)CCN3C(=O)CC2`: the melting point lay in the range of 166 to 168 °C.

In turn, `Cl.O=C1CCc2cc(C(=O)[C@H]3CC[C@H](CNCCc4ccccc4Cl)CC3)cc3c2N1CC3` had a melting point of 271 °C.

As to `CN(CCCCC(=O)c1ccc2c(c1)CNC(=O)N2)CCc1ccccc1Cl.Cl`, the melting point is 192 to 195 °C (dec.).

As to `Cl.O=C(CCCN1CCCc2ccccc2C1)c1cc2c3c(c1)CCN3C(=O)CC2`, the melting point was in the range of 230 to 232 °C.

For `COc1ccccc1CCNCCCCC(=O)c1cc2c3c(c1)CC(=O)N3CCC2.Cl`, the melting point is 169 to 170 °C.

Compound `CCOc1ccccc1OCCN1CCC(CCC(=O)c2ccc(OC)c(N)c2)CC1` (as salt: hydrochloride) came in with a melting point of 123 to 125 °C.

`O=C(CCC1CCN(CCc2ccccc2)CC1)c1cc2c3c(c1)CCN3C(=O)CC2` (as salt: hydrochloride) had a melting point of 219 to 221 °C.

With `CC(Cc1ccccc1)N1CCC(CCC(=O)c2cc3c4c(c2)CCN4C(=O)CC3)CC1.Cl` (racemic), the melting point was 211 to 213 °C.

The compound `Cl.O=C(CCC1CCN(CC(O)c2ccccc2)CC1)c1cc2c3c(c1)CCN3C(=O)CC2` (racemic) registered a melting point of 235 to 237 °C.

On to `Cl.O=C(CCC1CCN(C2CCc3ccccc32)CC1)c1cc2c3c(c1)CCN3C(=O)CC2` (racemic), for which the melting point fell in the range of 111 to 113 °C.

Take `Cl.O=C(CCC1CCN(C2CCc3ccccc3C2)CC1)c1cc2c3c(c1)CCN3C(=O)CC2` (racemic): the melting point lay within 223 to 225 °C.

`Cl.O=C(CCCCNC1CCc2ccccc21)c1cc2c3c(c1)CCN3C(=O)CC2` (racemic) registered a melting point of 98 to 100 °C.

Consider `Cl.O=C1CCc2cc(C(=O)[C@H]3CC[C@H](CNCCc4ccccc4)CC3)cc3c2N1CC3` (stereo in doubt), for which the melting point was 252 to 254 °C.

In the case of `CN(CCCCCCN(C)C(=O)Oc1ccc[n+](C)c1)C(=O)Oc1ccc[n+](C)c1` [Distigmine, distigmine, reference compound], in data set [1], the IC50 stood at 723 nM.

In the case of `O=C(CCC1CCN(CCc2cccc(F)c2)CC1)c1cc2c3c(c1)CCN3C(=O)CC2` [Example 84, 8-(3-[1-[2-(3-Fluorophenyl)ethyl]-4-piperidinyl]propanoyl)-1,2,5,6-tetrahydro-4H-pyrrolo[3,2,1-ij]quinolin-4-one hydrochloride], the results for the IC50 in data set [1] and in data set [2] were 169 nM and 236 nM, respectively.

Regarding `CCOc1ccccc1OCCN[C@H](C)Cc1ccc(OC)c(S(N)(=O)=O)c1` [tamsulosin, Tamsulosin, reference compound], in data set [3] (setting [4]), the “change in bladder internal pressure (ΔPves(Qmax))” value is reported as −3.56 ± 1.09 cmH2O and the “change in maximum urine flow rate (ΔQmax)” value came to 0.036 ± 0.014 mL/s. Moreover, in data set [3] (after administration relative to before), the “voiding efficiency (% of pre-value)” value turned out to be 118.5 ± 13.4 %. Moreover, the “reduction of blood pressure” value with Hartley male guinea pigs (0.01 mg/kg, i.v.) is reported as “about 40%”. For the same compound, the “Blood pressure, after administration” value with Hartley male guinea pigs (average blood pressure 15 minutes after i.v. administration, tamsulosin 0.01 mg/kg, Example 20 0.1 mg/kg) is reported as 32.9 ± 3.0 mmHg. For the same compound, the “Blood pressure, before administration” value with Hartley male guinea pigs (average blood pressure just before i.v. administration, tamsulosin 0.01 mg/kg, Example 20 0.1 mg/kg) stood at 54.5 ± 2.5 mmHg.

`COc1ccccc1N1CCN(CCCNc2cc(=O)n(C)c(=O)n2C)CC1` [urapidil, reference compound] had an IC50 in data set [2] of 357 nM.
